Measured values published in patent US8188078B2 (Sanofi-Aventis, priority 2007, dated 2012).

Key:
MKN45 cells = test: Test D: cellular proliferation by 14C-thymidine pulse, MKN45 cells; type: cell-based; settings: Homo sapiens, MKN-45, cellular proliferation by 14C-thymidine pulse; cell line not stated (HCT116 or MKN45)
Procedure, shortened: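 MKN45 cells (7500/well, RPMI + 10% foetal calf serum) treated with 10 concentrations, 10000 to 0.3 nM in 3-fold steps, duplicate. 14C-thymidine (0.1 μCi/well) added at 72 h; incorporation counted after 24 h pulse, 96 h total treatment.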

MET = target: T1, MET (Homo sapiens, UniProt P08581); test: Test C: inhibition of the autophosphorylation of MET, ELISA technique (pppY1230, 1234, 1235), MKN45 cells; type: cell-based
T1 construct: endogenous in cells; host or cells: MKN45 cells
Procedure, shortened: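 MKN45 cells adhered 24 h, then treated 1 h with compound at 6 concentrations in duplicate, final range 10000 to 30 nM. Lysates assayed by phospho-MET (pY1230/1234/1235) sandwich ELISA with HRP chromogen read at 450 nm.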

T1 sequence (P08581 25-1390): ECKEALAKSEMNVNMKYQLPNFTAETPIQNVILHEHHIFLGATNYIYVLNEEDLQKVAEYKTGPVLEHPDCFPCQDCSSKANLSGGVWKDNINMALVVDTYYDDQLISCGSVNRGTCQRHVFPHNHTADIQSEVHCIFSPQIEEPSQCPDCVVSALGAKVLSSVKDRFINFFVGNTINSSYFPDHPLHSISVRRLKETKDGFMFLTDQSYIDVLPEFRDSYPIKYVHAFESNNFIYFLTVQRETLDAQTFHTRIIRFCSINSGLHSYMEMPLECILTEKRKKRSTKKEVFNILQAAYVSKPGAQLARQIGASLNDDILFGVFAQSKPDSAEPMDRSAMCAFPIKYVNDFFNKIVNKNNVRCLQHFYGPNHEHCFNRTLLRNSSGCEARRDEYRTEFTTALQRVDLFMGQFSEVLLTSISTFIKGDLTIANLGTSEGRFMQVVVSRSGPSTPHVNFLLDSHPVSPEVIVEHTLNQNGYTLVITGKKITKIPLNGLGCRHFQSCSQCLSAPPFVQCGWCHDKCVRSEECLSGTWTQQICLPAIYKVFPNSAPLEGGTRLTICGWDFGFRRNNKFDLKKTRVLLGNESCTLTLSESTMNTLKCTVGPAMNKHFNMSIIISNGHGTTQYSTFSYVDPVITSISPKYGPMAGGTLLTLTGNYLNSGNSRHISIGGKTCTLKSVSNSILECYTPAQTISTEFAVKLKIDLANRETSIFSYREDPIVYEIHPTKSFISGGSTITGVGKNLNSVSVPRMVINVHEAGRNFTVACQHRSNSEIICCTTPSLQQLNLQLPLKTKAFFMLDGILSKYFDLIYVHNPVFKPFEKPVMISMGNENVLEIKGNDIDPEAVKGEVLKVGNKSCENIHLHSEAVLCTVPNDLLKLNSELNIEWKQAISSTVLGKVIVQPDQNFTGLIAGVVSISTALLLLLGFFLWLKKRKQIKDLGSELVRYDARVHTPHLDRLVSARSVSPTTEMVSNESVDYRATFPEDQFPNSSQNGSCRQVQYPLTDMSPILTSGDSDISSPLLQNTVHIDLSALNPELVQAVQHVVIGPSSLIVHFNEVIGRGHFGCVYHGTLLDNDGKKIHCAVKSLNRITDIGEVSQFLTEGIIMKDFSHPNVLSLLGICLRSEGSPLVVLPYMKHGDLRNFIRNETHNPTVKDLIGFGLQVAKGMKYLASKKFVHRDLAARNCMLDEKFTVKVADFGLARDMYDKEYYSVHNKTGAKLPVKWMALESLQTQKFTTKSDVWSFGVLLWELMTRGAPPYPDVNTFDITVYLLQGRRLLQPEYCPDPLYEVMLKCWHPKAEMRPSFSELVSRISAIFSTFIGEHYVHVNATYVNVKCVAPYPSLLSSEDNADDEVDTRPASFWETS

CC(Oc1cc2sc(NC(=O)NCCN3CCOCC3)nc2cc1Cl)c1c(Cl)ccc(F)c1Cl (stereo not drawn) [Example 106, 1-{5-chloro-6-[1-(2,6-dichloro-3-fluorophenyl)ethoxy]-1,3-benzothiazol-2-yl}-3-[2-(morpholin-4-yl)ethyl]urea]
melting point: 196 to 198 °C | IC50 (MKN45 cells): 500 to 10000 nM | IC50 (MET): 500 to 10000 nM

CC(Oc1cc2sc(NC(=O)NCCCO)nc2cc1F)c1c(Cl)ccc(F)c1Cl (stereo not drawn) [Example 105, 1-{6-[1-(2,6-dichloro-3-fluorophenyl)ethoxy]-5-fluoro-1,3-benzothiazol-2-yl}-3-(3-hydroxypropyl)urea]
melting point: 158 °C | IC50 (MKN45 cells): 500 to 10000 nM | IC50 (MET): < 500 nM

CC(Oc1ccc2nc(NC(=O)NCCN3CCOCC3)sc2c1)c1c(Cl)ccc(F)c1Cl (stereo not drawn) [Example 24, 1-{6-[1-(2,6-dichloro-3-fluorophenyl)ethoxy]-1,3-benzothiazol-2-yl}-3-(2-morpholin-4-ylethyl)urea]
melting point: 110 °C | IC50 (MKN45 cells): < 500 nM | IC50 (MET): < 500 nM

CC(Oc1cc2sc(NC(=O)NCCN3CCOCC3)nc2cc1F)c1c(Cl)cccc1Cl (stereo not drawn) [Example 29, 1-{6-[1-(2,6-dichlorophenyl)ethoxy]-5-fluoro-1,3-benzothiazol-2-yl}-3-(2-morpholin-4-ylethyl)urea]
melting point: 200 to 205 °C | IC50 (MKN45 cells): 500 to 10000 nM | IC50 (MET): < 500 nM

CC(Oc1ccc2nc(NC(=O)NCCN3CCCC3)sc2c1)c1c(Cl)ccc(Cl)c1Cl (stereo not drawn) [Example 125, 1-[2-(pyrrolidin-1-yl)ethyl]-3-{6-[1-(2,3,6-trichlorophenyl)ethoxy]-1,3-benzothiazol-2-yl}urea]
melting point: 189 °C | IC50 (MKN45 cells): 500 to 10000 nM | IC50 (MET): 500 to 10000 nM

CC(Oc1cc2sc(NC(=O)NCCCN3CCCC3=O)nc2cc1F)c1c(F)ccc(Cl)c1Cl (stereo not drawn) [Example 114, 1-{6-[1-(2,3-dichloro-6-fluorophenyl)ethoxy]-5-fluoro-1,3-benzothiazol-2-yl}-3-[3-(2-oxopyrrolidin-1-yl)propyl]urea]
melting point: 195 °C | IC50 (MKN45 cells): 500 to 10000 nM | IC50 (MET): < 500 nM

CC(Oc1cc2sc(NC(=O)CCCN3CCCC3)nc2cc1F)c1c(Cl)ccc(F)c1Cl (stereo not drawn) [Example 68, N-{6-[1-(2,6-dichloro-3-fluorophenyl)ethoxy]-5-fluoro-1,3-benzothiazol-2-yl}-4-(pyrrolidin-1-yl)butanamide]
melting point: 153 to 157 °C | IC50 (MKN45 cells): 500 to 10000 nM | IC50 (MET): < 500 nM

CC(Oc1ccc2nc(NC(=O)C3CC3)sc2c1)c1c(Cl)ccc(F)c1Cl (stereo not drawn) [Example 66, N-{6-[1-(2,6-dichloro-3-fluorophenyl)ethoxy]-1,3-benzothiazol-2-yl}cyclopropanecarboxamide]
melting point: 194 to 199 °C | IC50 (MKN45 cells): 500 to 10000 nM | IC50 (MET): < 500 nM

CC(Oc1cc2sc(NC(=O)NCCN3CCOCC3)nc2cc1F)c1c(F)ccc(Cl)c1Cl (stereo not drawn) [Example 111, 1-{6-[1-(2,3-dichloro-6-fluorophenyl)ethoxy]-5-fluoro-1,3-benzothiazol-2-yl}-3-[2-(morpholin-4-yl)ethyl]urea]
melting point: 220 to 225 °C | IC50 (MKN45 cells): 500 to 10000 nM | IC50 (MET): 500 to 10000 nM

CC(Oc1ccc2nc(NC(=O)NCCN3CCOCC3)sc2c1)c1c(Cl)cccc1Cl (stereo not drawn) [Example 17, 1-{6-[1-(2,6-dichlorophenyl)ethoxy]-1,3-benzothiazol-2-yl}-3-(2-morpholin-4-ylethyl)urea]
melting point: 165 to 168 °C | IC50 (MKN45 cells): 500 to 10000 nM | IC50 (MET): 500 to 10000 nM

CC(Oc1cc2sc(NC(=O)NCCN3CCCC3)nc2cc1F)c1c(Cl)ccc(Cl)c1Cl (stereo not drawn) [Example 126, 1-{5-fluoro-6-[1-(2,3,6-trichlorophenyl)ethoxy]-1,3-benzothiazol-2-yl}-3-[2-(pyrrolidin-1-yl)ethyl]urea]
melting point: 103 to 107 °C | IC50 (MKN45 cells): 500 to 10000 nM | IC50 (MET): 500 to 10000 nM

O=C(NCCN1CCOCC1)Nc1nc2cc(F)c(OCc3c(Cl)cccc3Cl)cc2s1 [Example 21, 1-{6-[(2,6-dichlorobenzyl)oxy]-5-fluoro-1,3-benzothiazol-2-yl}-3-(2-morpholin-4-ylethyl)urea]
melting point: 206 °C | IC50 (MKN45 cells): 500 to 10000 nM | IC50 (MET): 500 to 10000 nM

O=C(NCCN1CCOCC1)Nc1nc2ccc(OC(c3c(Cl)cccc3Cl)C(F)(F)F)cc2s1 (stereo not drawn) [Example 64, 1-{6-[1-(2,6-dichlorophenyl)-2,2,2-trifluoroethoxy]-1,3-benzothiazol-2-yl}-3-(2-morpholin-4-ylethyl)urea]
melting point: 150 to 160 °C | IC50 (MKN45 cells): > 10000 nM | IC50 (MET): 500 to 10000 nM

CC(Oc1cc2sc(NC(=O)CN3CCNCC3)nc2cc1F)c1c(Cl)ccc(F)c1Cl (stereo not drawn) [Example 69, N-{6-[1-(2,6-dichloro-3-fluorophenyl)ethoxy]-5-fluoro-1,3-benzothiazol-2-yl}-2-(piperazin-1-yl)acetamide]
melting point: 188 to 190 °C | IC50 (MKN45 cells): 500 to 10000 nM | IC50 (MET): < 500 nM

CNCCCNC(=O)Nc1nc2cc(F)c(OC(C)c3c(Cl)ccc(F)c3Cl)cc2s1 (stereo not drawn) [Example 127, 1-{6-[1-(2,6-dichloro-3-fluorophenyl)ethoxy]-5-fluoro-1,3-benzothiazol-2-yl}-3-[3-(methylamino)propyl]urea]
melting point: 183 °C | IC50 (MKN45 cells): 500 to 10000 nM | IC50 (MET): < 500 nM

CCN1CCN(CCNC(=O)Nc2nc3cc(F)c(OC(C)c4c(Cl)ccc(F)c4Cl)cc3s2)CC1 (stereo not drawn) [Example 100, 1-{6-[1-(2,6-dichloro-3-fluorophenyl)ethoxy]-5-fluoro-1,3-benzothiazol-2-yl}-3-[2-(4-ethylpiperazin-1-yl)ethyl]urea]
melting point: 150 to 152 °C | IC50 (MKN45 cells): < 500 nM | IC50 (MET): < 500 nM

CC(Oc1cc2sc(NC(=O)NCCN3CCN(C)CC3)nc2cc1F)c1c(F)ccc(Cl)c1Cl (stereo not drawn) [Example 115, 1-{6-[1-(2,3-dichloro-6-fluorophenyl)ethoxy]-5-fluoro-1,3-benzothiazol-2-yl}-3-[2-(4-methylpiperazin-1-yl)ethyl]urea]
melting point: 120 °C | IC50 (MKN45 cells): < 500 nM | IC50 (MET): < 500 nM

CC(Oc1ccc2nc(NC(=O)NCCN3CCOCC3)sc2c1)c1c(Cl)ccc(Cl)c1Cl (stereo not drawn) [Example 124, 1-[2-(morpholin-4-yl)ethyl]-3-{6-[1-(2,3,6-trichlorophenyl)ethoxy]-1,3-benzothiazol-2-yl}urea]
melting point: 189 °C | IC50 (MKN45 cells): 500 to 10000 nM | IC50 (MET): < 500 nM

CC(Oc1ccc2nc(NC(=O)CCCN3CCOCC3)sc2c1)c1c(Cl)ccc(F)c1Cl (stereo not drawn) [Example 65, N-{6-[1-(2,6-dichloro-3-fluorophenyl)ethoxy]-1,3-benzothiazol-2-yl}-4-(morpholin-4-yl)butanamide]
melting point: 141 to 145 °C | IC50 (MKN45 cells): 500 to 10000 nM | IC50 (MET): 500 to 10000 nM

CC(Oc1ccc2nc(NC(=O)NCCN3CCN(C)CC3)sc2c1)c1c(F)ccc(Cl)c1Cl (stereo not drawn) [Example 108, 1-{6-[1-(2,3-dichloro-6-fluorophenyl)ethoxy]-1,3-benzothiazol-2-yl}-3-[2-(4-methylpiperazin-1-yl)ethyl]urea]
melting point: 105 to 110 °C | IC50 (MKN45 cells): 500 to 10000 nM | IC50 (MET): < 500 nM

CC(Oc1ccc2nc(NC(=O)NCCN3CCCC3)sc2c1)c1c(F)ccc(Cl)c1Cl (stereo not drawn) [Example 120, 1-{6-[1-(2,3-dichloro-6-fluorophenyl)ethoxy]-1,3-benzothiazol-2-yl}-3-[2-(pyrrolidin-1-yl)ethyl]urea]
melting point: 110 to 115 °C | IC50 (MKN45 cells): < 500 nM | IC50 (MET): < 500 nM
